In publication PMC4790851, “Iminosugars Inhibit Dengue Virus Production via Inhibition of ER Alpha-Glucosidases—Not Glycolipid Processing Enzymes” (PLoS Neglected Tropical Diseases, 2016):

How the values were obtained:
[1] = molecular target: Rat intestinal maltase; test: In vitro enzyme inhibition, glucose release from disaccharide; format: biochemical; details: concentration required to inhibit the enzyme to 50% activity
Experimental: Inhibition of glucosidases and glycosidases was detected as previously described. Briefly, assays were performed at the optimum pH of each enzyme, and appropriate disaccharide was provided as substrate for glucosidase release assays. Release of D-glucose was measured using a Glucose B-test (Wako Diagnostics). Appropriate p-nitrophenyl glycoside was added as substrate for additional glycosidase assays, and assays were stopped by adding 400 mM Na2CO3. Release of p-nitrophenol was measured spectrophotometrically at 400 nm.

[2] = test system: monosialodihexosylganglioside (GM3) production; test: Glycosphingolipid analysis: GM3 levels in MDMΦs by NP-HPLC; format: cell-based, human; details: 48 h; for GM3 production (%): uninfected MDMΦ, normalized to untreated controls, mean ± SD, min. 3 donors
[3] = molecular target: T1, Rat intestinal sucrase (Rattus norvegicus, UniProt P23739); test: In vitro enzyme inhibition, glucose release from disaccharide; format: biochemical; details: concentration required to inhibit the enzyme to 50% activity; read-out: IC50
T1 construct: from tissue; host or cells: rat intestine

[4] = molecular target: T2, Rat intestinal isomaltase (Rattus norvegicus, UniProt P23739); test: as above; format: biochemical; details: concentration required to inhibit the enzyme to 50% activity; read-out: IC50
T2 construct: from tissue; host or cells: rat intestine

[5] = molecular target: T3, Mouse ER α-glucosidase II (Mus musculus, UniProt Q8BHN3); test: In vitro enzyme inhibition, 4MUG hydrolysis; format: biochemical; details: concentration required to inhibit the enzyme to 50% activity
T3 sequence (Q8BHN3 33-944): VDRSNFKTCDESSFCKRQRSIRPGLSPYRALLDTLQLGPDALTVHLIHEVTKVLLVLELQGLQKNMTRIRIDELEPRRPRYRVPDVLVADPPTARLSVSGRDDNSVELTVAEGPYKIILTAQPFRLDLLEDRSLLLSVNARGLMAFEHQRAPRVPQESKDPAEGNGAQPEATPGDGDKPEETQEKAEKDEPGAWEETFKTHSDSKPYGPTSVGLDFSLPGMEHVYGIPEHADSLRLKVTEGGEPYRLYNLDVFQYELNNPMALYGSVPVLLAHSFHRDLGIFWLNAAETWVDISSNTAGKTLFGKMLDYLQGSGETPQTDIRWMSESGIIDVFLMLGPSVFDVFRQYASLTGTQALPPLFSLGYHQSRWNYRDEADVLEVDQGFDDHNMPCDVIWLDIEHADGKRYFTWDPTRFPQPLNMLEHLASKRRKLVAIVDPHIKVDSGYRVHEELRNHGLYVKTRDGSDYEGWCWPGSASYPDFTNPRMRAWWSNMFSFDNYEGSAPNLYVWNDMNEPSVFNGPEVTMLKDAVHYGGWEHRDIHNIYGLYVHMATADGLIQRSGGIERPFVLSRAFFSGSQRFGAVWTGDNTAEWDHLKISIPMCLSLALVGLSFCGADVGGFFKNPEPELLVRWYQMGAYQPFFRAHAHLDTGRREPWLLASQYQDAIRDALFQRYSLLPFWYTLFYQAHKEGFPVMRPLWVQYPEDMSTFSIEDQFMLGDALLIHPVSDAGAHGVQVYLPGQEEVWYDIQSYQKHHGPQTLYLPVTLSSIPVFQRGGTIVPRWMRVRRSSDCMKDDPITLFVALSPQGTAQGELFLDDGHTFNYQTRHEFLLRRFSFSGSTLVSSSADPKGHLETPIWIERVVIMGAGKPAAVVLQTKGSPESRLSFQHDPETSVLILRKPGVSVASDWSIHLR
T3 sequence (O08795 15-521 partner): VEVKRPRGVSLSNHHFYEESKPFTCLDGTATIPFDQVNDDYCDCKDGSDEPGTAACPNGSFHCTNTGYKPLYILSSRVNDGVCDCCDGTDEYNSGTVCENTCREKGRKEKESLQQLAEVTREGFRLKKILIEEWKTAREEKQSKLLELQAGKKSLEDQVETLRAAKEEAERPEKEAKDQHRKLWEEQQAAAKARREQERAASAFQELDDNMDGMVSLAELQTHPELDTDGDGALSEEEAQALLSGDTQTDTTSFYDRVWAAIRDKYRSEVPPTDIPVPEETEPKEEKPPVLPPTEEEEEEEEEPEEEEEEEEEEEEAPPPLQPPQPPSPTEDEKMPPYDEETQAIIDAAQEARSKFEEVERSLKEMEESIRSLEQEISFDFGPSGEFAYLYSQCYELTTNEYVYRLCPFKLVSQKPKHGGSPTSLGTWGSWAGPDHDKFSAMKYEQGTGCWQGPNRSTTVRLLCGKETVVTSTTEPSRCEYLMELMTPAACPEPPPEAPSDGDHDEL
Experimental: Recombinant Mus musculus ER alpha-glucosidase II inhibition was measured by incubating 20 nM enzyme with various concentrations of inhibitors in 100 mM potassium phosphate pH 7.2 at 37 °C for 5 minutes. Activity was measured by addition of 0.25 mM 4-methylumbelliferyl α-D-glucopyranoside (4MUG) (Sigma Aldrich) in black, non-binding surface-treated microplates (Corning). Fluorescence upon hydrolysis of the 4MUG was measured at λex of 355 nm and λem of 460 nm in a M5 multi-mode plate reader (Molecular Devices) at 37 °C, measuring fluorescence every minute for a total of 30 minutes. The initial velocity was fit in the linear range of measurements, and activity was normalized to the uninhibited control in order to plot activity against the inhibitor concentration. A sigmoidal, four-parameter function with a variable slope was used to determine the EC50 values in Prism (GraphPad).

T1 sequence (P23739 whole entry): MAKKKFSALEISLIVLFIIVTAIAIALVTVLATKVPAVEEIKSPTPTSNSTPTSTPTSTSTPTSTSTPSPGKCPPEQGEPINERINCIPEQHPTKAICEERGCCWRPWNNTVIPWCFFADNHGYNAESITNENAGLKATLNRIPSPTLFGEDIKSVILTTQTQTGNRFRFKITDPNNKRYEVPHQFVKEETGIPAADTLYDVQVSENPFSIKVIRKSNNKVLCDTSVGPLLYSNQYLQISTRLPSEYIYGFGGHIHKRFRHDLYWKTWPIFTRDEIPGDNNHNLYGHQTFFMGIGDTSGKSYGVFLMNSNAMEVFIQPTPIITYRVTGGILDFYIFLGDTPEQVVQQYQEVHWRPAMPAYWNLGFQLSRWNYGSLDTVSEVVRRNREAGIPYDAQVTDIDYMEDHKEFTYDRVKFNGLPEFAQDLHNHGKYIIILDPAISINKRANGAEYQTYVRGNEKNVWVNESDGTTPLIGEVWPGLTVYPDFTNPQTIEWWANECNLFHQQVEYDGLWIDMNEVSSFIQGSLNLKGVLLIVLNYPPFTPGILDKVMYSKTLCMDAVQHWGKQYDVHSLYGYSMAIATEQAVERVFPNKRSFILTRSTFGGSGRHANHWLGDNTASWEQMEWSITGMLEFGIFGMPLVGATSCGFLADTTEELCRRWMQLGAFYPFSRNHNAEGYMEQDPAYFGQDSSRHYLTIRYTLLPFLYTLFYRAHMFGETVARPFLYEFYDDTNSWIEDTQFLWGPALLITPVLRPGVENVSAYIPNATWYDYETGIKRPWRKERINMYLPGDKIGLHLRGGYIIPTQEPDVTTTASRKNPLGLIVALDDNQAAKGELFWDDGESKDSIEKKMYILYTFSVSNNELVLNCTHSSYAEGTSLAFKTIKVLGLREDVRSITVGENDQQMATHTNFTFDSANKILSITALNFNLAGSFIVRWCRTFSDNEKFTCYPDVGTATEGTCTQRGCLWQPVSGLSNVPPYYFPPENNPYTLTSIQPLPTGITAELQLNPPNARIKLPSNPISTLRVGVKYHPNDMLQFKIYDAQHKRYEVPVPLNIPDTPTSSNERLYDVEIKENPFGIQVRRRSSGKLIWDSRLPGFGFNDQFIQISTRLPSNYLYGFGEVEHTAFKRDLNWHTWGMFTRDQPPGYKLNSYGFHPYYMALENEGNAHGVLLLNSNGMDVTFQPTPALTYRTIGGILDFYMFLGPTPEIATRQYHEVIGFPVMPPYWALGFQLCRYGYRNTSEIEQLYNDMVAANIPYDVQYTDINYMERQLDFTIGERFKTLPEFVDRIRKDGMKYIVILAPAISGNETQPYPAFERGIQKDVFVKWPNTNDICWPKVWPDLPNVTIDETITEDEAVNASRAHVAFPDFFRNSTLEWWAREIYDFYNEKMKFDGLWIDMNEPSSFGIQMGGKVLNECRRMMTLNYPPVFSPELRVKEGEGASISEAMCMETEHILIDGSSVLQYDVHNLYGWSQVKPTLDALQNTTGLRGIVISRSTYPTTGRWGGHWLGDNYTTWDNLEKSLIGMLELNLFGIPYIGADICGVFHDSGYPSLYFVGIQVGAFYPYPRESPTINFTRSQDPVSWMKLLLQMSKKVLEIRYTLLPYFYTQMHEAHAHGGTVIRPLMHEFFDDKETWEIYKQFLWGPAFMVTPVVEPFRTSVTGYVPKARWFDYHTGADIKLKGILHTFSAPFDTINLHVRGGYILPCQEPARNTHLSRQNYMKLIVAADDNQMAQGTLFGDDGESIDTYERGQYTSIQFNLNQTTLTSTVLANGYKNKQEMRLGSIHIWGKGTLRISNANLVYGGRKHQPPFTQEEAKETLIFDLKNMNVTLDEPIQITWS
T2 sequence (P23739 whole entry): as above

Compound | IC50 [1] | GM3 production (%) ([2]; 100 μM (MNTD)) | IC50 [3] | IC50 [4] | IC50 [5] | inhibition at 10 µM ([2]; Homo sapiens, 10 μM, MDMΦs) | EC50 ([2]; Homo sapiens, titration 1 to 100 μM, three donors, read-out: 95% CI for GM3 EC50) | GM3 production (%) ([2]; 31.6 μM (MNTD))
CCCC(=O)O[C@H]1CN2CC[C@H](O)[C@@H]2[C@@H](O)[C@@H]1O [Celgosivir, 6-O-butanoyl-castanospermine] | 17 µM | 100.9 ± 4.1% | 2.7 µM | 29.3 µM | 158 µM | – | – | –
CCCCN1C[C@H](O)[C@@H](O)[C@@H](O)[C@H]1CO [NB-DGJ] | > 1000 µM | 7.3 ± 1.9% | > 1000 µM | > 1000 µM | > 1000 µM | – | – | –
CCCCN1C[C@H](O)[C@@H](O)[C@H](O)[C@H]1CO [NB-DNJ, N-butyl-DNJ] | 1.1 µM | 8.8 ± 3.6% | 0.44 µM | – | 5.2 µM | 90 to 95% | 0.8 to 1.37 µM | –
CCCCCCCCCN1C[C@H](O)[C@@H](O)[C@@H](O)[C@H]1CO [NN-DGJ] | > 1000 µM | – | > 1000 µM | > 1000 µM | > 1000 µM | – | – | 4.9 ± 1.9%
